Data reported in paper PMC5218480 (PLoS ONE, 2017).

System: MV-4-11 cells
Assay: Gene expression microarray analysis (Affymetrix PrimeView) and GSEA
Type: cell-based, human
Parameters: RFU PODN (11730768_x_at) / Fold change /veh PODN (11730768_x_at) / RFU LINC00158 (11744669_a_at) / Fold change /veh LINC00158 (11744669_a_at) / RFU DUSP10 (11751237_a_at) / Fold change /veh DUSP10 (11751237_a_at) / RFU ID3 (11757404_x_at) / Fold change /veh ID3 (11757404_x_at) / RFU PLEKHG5 (11737974_s_at) / Fold change /veh PLEKHG5 (11737974_s_at) / RFU LRRC4B (11730491_at) / Fold change /veh LRRC4B (11730491_at) / RFU GIMAP4 (11747438_a_at) / Fold change /veh GIMAP4 (11747438_a_at) / RFU KRT8 (11758183_x_at) / Fold change /veh KRT8 (11758183_x_at) / RFU CNN1 (11734310_a_at) / Fold change /veh CNN1 (11734310_a_at) / RFU VPS37D (11726825_at) / Fold change /veh VPS37D (11726825_at) / RFU C10orf10 (11716522_x_at) / Fold change /veh C10orf10 (11716522_x_at) / RFU KIR2DL2 /// KIR2DL4 /// KIR2DL5A /// KIR2DL5B /// KIR2DS1 /// KIR2DS2 /// KIR2DS3 /// KIR2DS4 /// KIR3DL3 /// KIR3DL3 /// KIR3DS1 (11738374_at) / Fold change /veh KIR2DL2 /// KIR2DL4 /// KIR2DL5A /// KIR2DL5B /// KIR2DS1 /// KIR2DS2 /// KIR2DS3 /// KIR2DS4 /// KIR3DL3 /// KIR3DL3 /// KIR3DS1 (11738374_at) / RFU C1QL1 (11718748_at) / Fold change /veh C1QL1 (11718748_at) / RFU TMPRSS4 (11747572_a_at) / Fold change /veh TMPRSS4 (11747572_a_at) / RFU HAMP (11756126_x_at) / Fold change /veh HAMP (11756126_x_at) / RFU RNFT2 (11725882_a_at) / Fold change /veh RNFT2 (11725882_a_at) / RFU NR4A2 (11747474_a_at) / Fold change /veh NR4A2 (11747474_a_at) / RFU ABCC12 (11746883_a_at) / Fold change /veh ABCC12 (11746883_a_at) / RFU TMEM136 (11760407_x_at) / Fold change /veh TMEM136 (11760407_x_at) / RFU CLDN22 /// WWC2 (11732394_at) / Fold change /veh CLDN22 /// WWC2 (11732394_at) / RFU HLA-DPB1 (11760878_x_at) / Fold change /veh HLA-DPB1 (11760878_x_at) / RFU SPINT1 (11716480_a_at) / Fold change /veh SPINT1 (11716480_a_at) / RFU GAP43 (11754022_s_at) / Fold change /veh GAP43 (11754022_s_at) / RFU A4GNT (11735810_at) / Fold change /veh A4GNT (11735810_at) / RFU PRB3 (11715151_x_at) / Fold change /veh PRB3 (11715151_x_at) / RFU TUBB4B (11761932_at) / Fold change /veh TUBB4B (11761932_at) / RFU CAPN14 (11732068_a_at) / Fold change /veh CAPN14 (11732068_a_at) / RFU TMCC2 (11721928_a_at) / Fold change /veh TMCC2 (11721928_a_at) / RFU IRGQ (11745062_a_at) / Fold change /veh IRGQ (11745062_a_at) / RFU FAM174B (11720279_a_at) / Fold change /veh FAM174B (11720279_a_at) / RFU TMPRSS4 (11748680_a_at) / Fold change /veh TMPRSS4 (11748680_a_at) / RFU FAM212B (11763350_a_at) / Fold change /veh FAM212B (11763350_a_at) / RFU PLEKHG5 (11743358_a_at) / Fold change /veh PLEKHG5 (11743358_a_at) / RFU ZSCAN30 (11745921_a_at) / Fold change /veh ZSCAN30 (11745921_a_at) / RFU CMKLR1 (11741424_a_at) / Fold change /veh CMKLR1 (11741424_a_at) / RFU LOC101060620 /// MAPK8IP1 (11723275_at) / Fold change /veh LOC101060620 /// MAPK8IP1 (11723275_at) / RFU SPTSSB (11747773_x_at) / Fold change /veh SPTSSB (11747773_x_at) / RFU PRSS12 (11739890_at) / Fold change /veh PRSS12 (11739890_at) / RFU BIN1 (11741810_x_at) / Fold change /veh BIN1 (11741810_x_at) / RFU WNT11 (11732464_a_at) / Fold change /veh WNT11 (11732464_a_at) / RFU C10orf10 (11716521_a_at) / Fold change /veh C10orf10 (11716521_a_at) / RFU C5orf56 (11738089_at) / Fold change /veh C5orf56 (11738089_at) / RFU CYB561 (11721691_x_at) / Fold change /veh CYB561 (11721691_x_at) / RFU ANKRD19P (11752326_a_at) / Fold change /veh ANKRD19P (11752326_a_at) / RFU OR2T12 /// OR2T33 /// OR2T8 (11738714_s_at) / Fold change /veh OR2T12 /// OR2T33 /// OR2T8 (11738714_s_at) / RFU VCAN (11748164_a_at) / Fold change /veh VCAN (11748164_a_at) / RFU JSRP1 (11732532_at) / Fold change /veh JSRP1 (11732532_at) / RFU KRTAP10-11 (11738290_x_at) / Fold change /veh KRTAP10-11 (11738290_x_at) / RFU MYO3A (11730013_a_at) / Fold change /veh MYO3A (11730013_a_at) / RFU EBF3 (11725865_a_at) / Fold change /veh EBF3 (11725865_a_at) / RFU CAMK2N1 (11719241_x_at) / Fold change /veh CAMK2N1 (11719241_x_at) / RFU C5orf56 (11738088_a_at) / Fold change /veh C5orf56 (11738088_a_at) / RFU OLFML3 (11715873_a_at) / Fold change /veh OLFML3 (11715873_a_at) / RFU LOC100653217 /// NTM (11731650_a_at) / Fold change /veh LOC100653217 /// NTM (11731650_a_at) / RFU MAPK11 (11762145_a_at) / Fold change /veh MAPK11 (11762145_a_at) / RFU FIZ1 (11724087_x_at) / Fold change /veh FIZ1 (11724087_x_at) / RFU OASL (11726364_x_at) / Fold change /veh OASL (11726364_x_at) / RFU SOX15 (11748057_x_at) / Fold change /veh SOX15 (11748057_x_at) / RFU CD79A (11719716_a_at) / Fold change /veh CD79A (11719716_a_at) / RFU HIST1H1D (11736915_at) / Fold change /veh HIST1H1D (11736915_at) / RFU CASKIN2 (11723855_a_at) / Fold change /veh CASKIN2 (11723855_a_at) / RFU LOC730098 (11760151_x_at) / Fold change /veh LOC730098 (11760151_x_at) / RFU OR4N2 (11742367_at) / Fold change /veh OR4N2 (11742367_at) / RFU PRRT2 (11749266_a_at) / Fold change /veh PRRT2 (11749266_a_at) / RFU SNX32 (11753110_a_at) / Fold change /veh SNX32 (11753110_a_at) / RFU CDHR5 (11726645_a_at) / Fold change /veh CDHR5 (11726645_a_at) / RFU RCAN1 (11760418_a_at) / Fold change /veh RCAN1 (11760418_a_at) / RFU FAM167A (11723789_a_at) / Fold change /veh FAM167A (11723789_a_at) / RFU FAM26E (11764081_at) / Fold change /veh FAM26E (11764081_at) / RFU ISYNA1 (11749810_s_at) / Fold change /veh ISYNA1 (11749810_s_at) / RFU ACY1 (11761880_at) / Fold change /veh ACY1 (11761880_at) / RFU 11764098_at / Fold change /veh 11764098_at / RFU SAMD14 (11745864_x_at) / Fold change /veh SAMD14 (11745864_x_at) / RFU NPB (11741838_a_at) / Fold change /veh NPB (11741838_a_at) / RFU TMPRSS6 (11731388_a_at) / Fold change /veh TMPRSS6 (11731388_a_at) / RFU KRTAP10-2 (11738614_at) / Fold change /veh KRTAP10-2 (11738614_at) / RFU ARHGAP8 /// PRR5-ARHGAP8 (11727945_x_at) / Fold change /veh ARHGAP8 /// PRR5-ARHGAP8 (11727945_x_at) / RFU KRTAP5-7 /// NADSYN1 (11734609_at) / Fold change /veh KRTAP5-7 /// NADSYN1 (11734609_at) / RFU RASL12 (11751679_a_at) / Fold change /veh RASL12 (11751679_a_at) / RFU CDKN2B (11736163_a_at) / Fold change /veh CDKN2B (11736163_a_at) / RFU PRF1 (11729649_at) / Fold change /veh PRF1 (11729649_at) / RFU, ZNF638 /// ZNF638-IT1 / Fold change vs veh, ZNF638 /// ZNF638-IT1 / RFU, PANK3 / Fold change vs veh, PANK3 / RFU, SH3YL1 / Fold change vs veh, SH3YL1 / RFU, ZEB2 / Fold change vs veh, ZEB2 / RFU, NRIP1 / Fold change vs veh, NRIP1 / RFU, PTTG1IP / Fold change vs veh, PTTG1IP / RFU, CAPN2 / Fold change vs veh, CAPN2 / RFU, MED14 / Fold change vs veh, MED14 / RFU, SNORA58 / Fold change vs veh, SNORA58 / RFU, C1orf63 / Fold change vs veh, C1orf63 / RFU, LRRFIP1 / Fold change vs veh, LRRFIP1 / RFU, NDUFAF7 / Fold change vs veh, NDUFAF7 / RFU, SLC12A2 / Fold change vs veh, SLC12A2 / RFU, IBTK / Fold change vs veh, IBTK / RFU, ESF1 / Fold change vs veh, ESF1 / Fold change vs veh, TMEM50B / RFU, TAOK1 / Fold change vs veh, TAOK1 / RFU, ACBD3 / Fold change vs veh, ACBD3 / RFU, TMA16 / Fold change vs veh, TMA16 / RFU, RWDD3 / Fold change vs veh, RWDD3 / RFU, BCAT1 / Fold change vs veh, BCAT1 / RFU, EDEM3 / Fold change vs veh, EDEM3 / RFU, TMEM33 / Fold change vs veh, TMEM33 / RFU, WDR75 / Fold change vs veh, WDR75 / RFU, AHCTF1 / Fold change vs veh, AHCTF1 / RFU, TFRC / Fold change vs veh, TFRC / RFU, ZDHHC17 / Fold change vs veh, ZDHHC17 / RFU, NOM1 / Fold change vs veh, NOM1 / RFU, ARL8B / Fold change vs veh, ARL8B / RFU, ZBTB11 / Fold change vs veh, ZBTB11 / RFU, TAMM41 / Fold change vs veh, TAMM41 / RFU, KIAA1704 /// LOC100996395 / Fold change vs veh, KIAA1704 /// LOC100996395 / RFU, ING1 / Fold change vs veh, ING1 / RFU, TRMT61B / Fold change vs veh, TRMT61B / RFU, FUBP3 / Fold change vs veh, FUBP3 / RFU, TP53 / Fold change vs veh, TP53 / RFU, TNKS2 / Fold change vs veh, TNKS2 / RFU, ZFP14 / Fold change vs veh, ZFP14 / RFU, ACTR2 / Fold change vs veh, ACTR2 / RFU, PPP3R1 / Fold change vs veh, PPP3R1 / RFU, PIK3R1 / Fold change vs veh, PIK3R1 / RFU, HNRNPA1 / Fold change vs veh, HNRNPA1 / RFU, RNF170 / Fold change vs veh, RNF170 / RFU, ZNF28 / Fold change vs veh, ZNF28 / RFU, RNGTT / Fold change vs veh, RNGTT / RFU, OGT / Fold change vs veh, OGT / RFU, BRD1 / Fold change vs veh, BRD1 / RFU, MARS / Fold change vs veh, MARS / RFU, ZNF655 / Fold change vs veh, ZNF655 / RFU, FAHD1 / Fold change vs veh, FAHD1 / RFU, BDP1 / Fold change vs veh, BDP1 / RFU, LRRCC1 / Fold change vs veh, LRRCC1 / RFU, ARID1A / Fold change vs veh, ARID1A / RFU, ZNF146 / Fold change vs veh, ZNF146 / RFU, ZNF330 / Fold change vs veh, ZNF330 / RFU, GPN3 / Fold change vs veh, GPN3 / RFU, C9orf123 / Fold change vs veh, C9orf123 / RFU, N4BP2L2 / Fold change vs veh, N4BP2L2 / RFU, ARFIP1 / Fold change vs veh, ARFIP1 / RFU, FAM179B / Fold change vs veh, FAM179B / RFU, BCL10 / Fold change vs veh, BCL10 / RFU, UHRF1BP1L / Fold change vs veh, UHRF1BP1L / RFU, BET1 / Fold change vs veh, BET1 / RFU, CNOT2 / Fold change vs veh, CNOT2 / RFU, ZNF268 / Fold change vs veh, ZNF268 / Fold change vs veh, ZNF507 / RFU, DGCR2 / Fold change vs veh, DGCR2 / RFU, WDSUB1 / Fold change vs veh, WDSUB1 / Fold change vs veh, HSP90B1 /// MIR3652 / RFU, ADSS / Fold change vs veh, ADSS / RFU, GK / Fold change vs veh, GK / RFU, ZNF148 / Fold change vs veh, ZNF148 / RFU, TAF9 / Fold change vs veh, TAF9 / RFU, SLC1A5 / Fold change vs veh, SLC1A5 / RFU, SLMO2 / Fold change vs veh, SLMO2 / RFU, ABCC4 / Fold change vs veh, ABCC4 / RFU, LOC101060439 /// RAP1B / Fold change vs veh, LOC101060439 /// RAP1B / RFU, RFX7 / Fold change vs veh, RFX7 / RFU, GTPBP10 / Fold change vs veh, GTPBP10 / RFU, CNEP1R1 / Fold change vs veh, CNEP1R1 / RFU, BIVM-ERCC5 /// ERCC5 / Fold change vs veh, BIVM-ERCC5 /// ERCC5 / RFU, ILF3 / Fold change vs veh, ILF3 / RFU 11762660_at / Fold change /veh 11762660_at / RFU VCAN (11757783_s_at) / Fold change /veh VCAN (11757783_s_at) / RFU DDX43 (11728927_at) / Fold change /veh DDX43 (11728927_at) / RFU KRT8 (11758188_x_at) / Fold change /veh KRT8 (11758188_x_at) / RFU NKD1 (11759106_at) / Fold change /veh NKD1 (11759106_at) / RFU SRD5A1 (11742802_a_at) / Fold change /veh SRD5A1 (11742802_a_at) / RFU TPSAB1 /// TPSB2 (11721975_s_at) / Fold change /veh TPSAB1 /// TPSB2 (11721975_s_at) / RFU GSTM3 (11746129_a_at) / Fold change /veh GSTM3 (11746129_a_at) / RFU IL23R (11737362_x_at) / Fold change /veh IL23R (11737362_x_at) / RFU TMEM51 (11727254_a_at) / Fold change /veh TMEM51 (11727254_a_at) / RFU PIWIL2 (11732686_x_at) / Fold change /veh PIWIL2 (11732686_x_at) / RFU ORM1 (11744905_x_at) / Fold change /veh ORM1 (11744905_x_at) / RFU CCDC152 (11743942_at) / Fold change /veh CCDC152 (11743942_at) / RFU ECM1 (11717891_a_at) / Fold change /veh ECM1 (11717891_a_at) / RFU IL23R (11748794_a_at) / Fold change /veh IL23R (11748794_a_at) / RFU TNFAIP8L3 (11732012_x_at) / Fold change /veh TNFAIP8L3 (11732012_x_at) / RFU MBOAT4 (11741988_at) / Fold change /veh MBOAT4 (11741988_at) / RFU 11764193_at / Fold change /veh 11764193_at / RFU TMEM53 (11763286_at) / Fold change /veh TMEM53 (11763286_at) / RFU MAGEB2 (11727129_at) / Fold change /veh MAGEB2 (11727129_at) / RFU TMEM200A (11744735_a_at) / Fold change /veh TMEM200A (11744735_a_at) / RFU CCDC152 (11751479_a_at) / Fold change /veh CCDC152 (11751479_a_at) / RFU FAM211A (11726209_a_at) / Fold change /veh FAM211A (11726209_a_at) / RFU RGS16 (11746705_a_at) / Fold change /veh RGS16 (11746705_a_at) / RFU VCAN (11755009_s_at) / Fold change /veh VCAN (11755009_s_at) / RFU RHOB (11743442_s_at) / Fold change /veh RHOB (11743442_s_at) / RFU RGS16 (11720943_a_at) / Fold change /veh RGS16 (11720943_a_at) / RFU RGS16 (11720944_at) / Fold change /veh RGS16 (11720944_at) / RFU, VPS4B / Fold change vs veh, VPS4B / RFU, CREB1 / Fold change vs veh, CREB1 / RFU, DNAJC13 / Fold change vs veh, DNAJC13 / RFU, GNAQ / Fold change vs veh, GNAQ / RFU, CDK5R1 / Fold change vs veh, CDK5R1 / RFU, ZRANB3 / Fold change vs veh, ZRANB3 / RFU, CUL4A / Fold change vs veh, CUL4A / RFU, CCNY / Fold change vs veh, CCNY / RFU, UFL1 / Fold change vs veh, UFL1 / RFU, COG3 / Fold change vs veh, COG3 / RFU, DIAPH2 / Fold change vs veh, DIAPH2 / RFU, SKA2 / Fold change vs veh, SKA2 / RFU, AFF3 / Fold change vs veh, AFF3 / RFU, LMF1 / Fold change vs veh, LMF1 / RFU, IPO11 / Fold change vs veh, IPO11 / RFU, DFFB / Fold change vs veh, DFFB / RFU, FOXP1 / Fold change vs veh, FOXP1 / RFU, CARD8 / Fold change vs veh, CARD8 / RFU, STRN3 / Fold change vs veh, STRN3 / RFU, ADK / Fold change vs veh, ADK / RFU, RASSF2 / Fold change vs veh, RASSF2 / RFU, WIPF1 / Fold change vs veh, WIPF1 / RFU, LARP1B / Fold change vs veh, LARP1B / RFU, RASA1 / Fold change vs veh, RASA1 / RFU, RB1 / Fold change vs veh, RB1 / RFU, PPFIA1 / Fold change vs veh, PPFIA1 / RFU, MAT2A / Fold change vs veh, MAT2A / RFU, CCT5 / Fold change vs veh, CCT5 / RFU, WDR92 / Fold change vs veh, WDR92 / RFU, CUX1 / Fold change vs veh, CUX1 / RFU, TTC7A / Fold change vs veh, TTC7A / RFU, TMEM135 / Fold change vs veh, TMEM135 / RFU, DEPTOR / Fold change vs veh, DEPTOR / RFU, CPM / Fold change vs veh, CPM / RFU, DNAJB6 / Fold change vs veh, DNAJB6 / RFU, CACNA2D3 / Fold change vs veh, CACNA2D3 / RFU, DTX4 / Fold change vs veh, DTX4 / RFU, TFCP2 / Fold change vs veh, TFCP2 / RFU, GMCL1 /// GMCL1P1 / Fold change vs veh, GMCL1 /// GMCL1P1 / RFU, AEBP2 / Fold change vs veh, AEBP2 / RFU, SNHG1 /// SNORD22 /// SNORD25 /// SNORD26 /// SNORD27 /// SNORD28 /// SNORD29 /// SNORD31 / Fold change vs veh, SNHG1 /// SNORD22 /// SNORD25 /// SNORD26 /// SNORD27 /// SNORD28 /// SNORD29 /// SNORD31 / Fold change (Aza/veh), C12orf56 (ProbeSet 11735607_a_at) / Fold change (ACY-1035/veh), C12orf56 (ProbeSet 11735607_a_at) / Fold change (Aza/veh), FGFR1OP (ProbeSet 11751329_s_at) / Fold change (ACY-1035/veh), FGFR1OP (ProbeSet 11751329_s_at) / Fold change (Aza/veh), VPS36 (ProbeSet 11739960_a_at) / Fold change (ACY-1035/veh), VPS36 (ProbeSet 11739960_a_at) / RFU SYPL1 (11715823_x_at) / Fold change /veh SYPL1 (11715823_x_at) / RFU IGFBP7 (11715501_s_at) / Fold change /veh IGFBP7 (11715501_s_at) / RFU REEP3 (11722064_at) / Fold change /veh REEP3 (11722064_at) / RFU IGLL1 (11728026_x_at) / Fold change /veh IGLL1 (11728026_x_at): dose or concentration left out as unconfirmed
Conditions: MV-4-11 cells, 48 hours

`Nc1ccc(-c2cccs2)cc1NC(=O)c1ccc2c(c1)cc(C1CC1)n2CCN1CCOCC1` [ACY-1035] was tested. Which “RFU HAMP (11756126_x_at)” value did it give?
Its value is 352.00 RFU.
